Experiments:
wheat [1] = experiment: Test A postemergence; assay type: in vivo, Triticum aestivum; details: for Plant response rating, Wheat: 500 g ai/ha
Outline: (§1)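 Loam/sand soil; pre-em directed soil spray at planting, post-em spray at 1–2 leaf (2–10 cm). Compound in non-phytotoxic solvent + surfactant. Greenhouse 10 d; visual injury vs untreated, 0 = no effect, 100 = complete control.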

ducksalad = experiment: Test B flooded paddy test; assay type: in vivo, Heteranthera limosa; details: 250 g ai/ha, Flood, 13 days, 0 to 100 scale (0 no effect, 100 complete control)
Outline: (§2)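 Plants at the 2-leaf stage were flooded to 3 cm above the soil, and test compounds were applied directly into the paddy water, with that depth held throughout. After 13 days in a greenhouse, injury was rated visually against untreated controls on a 0–100 scale (100 = complete control).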

rice = experiment: Test B flooded paddy test; assay type: in vivo, Oryza sativa; details: 250 g ai/ha, Flood, 13 days, 0 to 100 scale (0 no effect, 100 complete control)
Outline: as §2

ragweed [2] = experiment: Test A preemergence; assay type: in vivo, Ambrosia artemisiifolia
Outline: as §1

blackgrass [3] = experiment: Test A preemergence; assay type: in vivo, Alopecurus myosuroides
Outline: as §1

oat, wild [4] = experiment: Test A postemergence; assay type: in vivo, Avena fatua; details: for Plant response rating, Oat, Wild: 500 g ai/ha
Outline: as §1

foxtail, giant [5] = experiment: Test A preemergence; assay type: in vivo, Setaria faberi
Outline: as §1

wheat [6] = experiment: Test A preemergence; assay type: in vivo, Triticum aestivum
Outline: as §1

ragweed [7] = experiment: Test A postemergence; assay type: in vivo, Ambrosia artemisiifolia; details: for Plant response rating, Ragweed: 500 g ai/ha
Outline: as §1

kochia [8] = experiment: Test A postemergence; assay type: in vivo, Bassia scoparia
Outline: as §1

blackgrass [9] = experiment: Test A postemergence; assay type: in vivo, Alopecurus myosuroides
Outline: as §1

barnyardgrass = experiment: Test B flooded paddy test; assay type: in vivo, Echinochloa crus-galli; details: 250 g ai/ha, Flood, 13 days, 0 to 100 scale (0 no effect, 100 complete control)
Outline: as §2

goosegrass [10] = experiment: Test A preemergence; assay type: in vivo, Eleusine indica
Outline: as §1

pigweed, palmer [11] = experiment: Test A preemergence; assay type: in vivo, Amaranthus palmeri
Outline: as §1

foxtail, giant [12] = experiment: Test A postemergence; assay type: in vivo, Setaria faberi
Outline: as §1

galium = experiment: Test A postemergence; assay type: in vivo, Galium aparine
Outline: as §1

horseweed = experiment: Test A postemergence; assay type: in vivo, Erigeron canadensis
Outline: as §1

ryegrass, Italian [13] = experiment: Test A preemergence; assay type: in vivo, Lolium multiflorum
Outline: as §1

goosegrass [14] = experiment: Test A postemergence; assay type: in vivo, Eleusine indica
Outline: as §1

soybean [15] = experiment: Test A preemergence; assay type: in vivo, Glycine max
Outline: as §1

oat, wild [16] = experiment: Test A preemergence; assay type: in vivo, Avena fatua
Outline: as §1

pigweed, palmer [17] = experiment: Test A postemergence; assay type: in vivo, Amaranthus palmeri; details: for Plant response rating, Pigweed, Palmer: 500 g ai/ha
Outline: as §1

sedge, umbrella = experiment: Test B flooded paddy test; assay type: in vivo, Cyperus difformis; details: 250 g ai/ha, Flood, 13 days, 0 to 100 scale (0 no effect, 100 complete control)
Outline: as §2

corn [18] = experiment: Test A postemergence; assay type: in vivo, Zea mays
Outline: as §1

kochia [19] = experiment: Test A preemergence; assay type: in vivo, Bassia scoparia
Outline: as §1

corn [20] = experiment: Test A preemergence; assay type: in vivo, Zea mays
Outline: as §1

ryegrass, Italian [21] = experiment: Test A postemergence; assay type: in vivo, Lolium multiflorum; details: for Plant response rating, Ryegrass, Italian: 500 g ai/ha
Outline: as §1

soybean [22] = experiment: Test A postemergence; assay type: in vivo, Glycine max; details: for Plant response rating, Soybean: 500 g ai/ha
Outline: as §1

[23] = 125 g ai/ha, visual injury after 10 days, 0 to 100 scale, 0 is no effect, 100 is complete control
[24] = 500 g ai/ha, 0 to 100 scale (0 no effect, 100 complete control), 10 days
[25] = 125 g ai/ha, postemergence, 10 days, visual injury, 0 to 100 scale (0 no effect, 100 complete control)
[26] = 500 g ai/ha, Postemergence, 0 to 100 scale
[27] = 125 g ai/ha, postemergence, 10 days, 0 to 100 scale, 0 no effect, 100 complete control
[28] = postemergence, 10 days, visual injury, 0 to 100 scale (0 no effect, 100 complete control)
[29] = 500 g ai/ha, postemergence, 10 days, visual injury, 0 to 100 scale (0 no effect, 100 complete control)

Cc1cccc2c1O[C@@H](C)CN2C(=O)c1cccc(-n2cnc(C(C)(C)C)n2)c1 [Compound 65]
10: Plant response rating, Foxtail, Giant (foxtail, giant [12]; [25]) | Plant response rating, Goosegrass (goosegrass [14]; [25]) | Plant response rating, Corn (corn [18]; [25])
95: Plant response rating, Sedge, Umbrella (sedge, umbrella)
20: Plant response rating, Wheat (wheat [1]; Postemergence, 0 to 100 scale) | Plant response rating, Oat, Wild (oat, wild [4]; Postemergence, 0 to 100 scale) | Plant response rating, Horseweed (horseweed; [26])
100: Plant response rating, Foxtail, Giant (foxtail, giant [5]; [23]) | Plant response rating, Foxtail, Giant (foxtail, giant [5]; [24]) | Plant response rating, Goosegrass (goosegrass [10]; [23]) | Plant response rating, Goosegrass (goosegrass [10]; [24]) | Plant response rating, Pigweed, Palmer (pigweed, palmer [11]; [24]) | Plant response rating, Galium (galium; [25]) | Plant response rating, Galium (galium; [26]) | Plant response rating, Ryegrass, Italian (ryegrass, Italian [13]; [23]) | Plant response rating, Ryegrass, Italian (ryegrass, Italian [13]; [24]) | Plant response rating, Kochia (kochia [19]; [24]) | Plant response rating, Ryegrass, Italian (ryegrass, Italian [21]; Postemergence, 0 to 100 scale) | Plant response rating, Soybean (soybean [22]; Postemergence, 0 to 100 scale)
45: Plant response rating, Ducksalad (ducksalad)
70: Plant response rating, Wheat (wheat [6]; [24]) | Plant response rating, Oat, Wild (oat, wild [16]; [23]) | Plant response rating, Pigweed, Palmer (pigweed, palmer [17]; Postemergence, 0 to 100 scale) | Plant response rating, Corn (corn [18]; [26])
30: Plant response rating, Blackgrass (blackgrass [9]; [25]) | Plant response rating, Soybean (soybean [15]; [23])
60: Plant response rating, Kochia (kochia [8]; [25])
50: Plant response rating, Foxtail, Giant (foxtail, giant [12]; [26]) | Plant response rating, Corn (corn [20]; [24])
40: Plant response rating, Ragweed (ragweed [2]; [24]) | Plant response rating, Wheat (wheat [6]; [23]) | Plant response rating, Goosegrass (goosegrass [14]; [26]) | Plant response rating, Corn (corn [20]; [23])
80: Plant response rating, Blackgrass (blackgrass [3]; [23]) | Plant response rating, Ragweed (ragweed [7]; Postemergence, 0 to 100 scale) | Plant response rating, Blackgrass (blackgrass [9]; [26]) | Plant response rating, Oat, Wild (oat, wild [16]; [24]) | Plant response rating, Kochia (kochia [19]; [23])
90: Plant response rating, Blackgrass (blackgrass [3]; [24]) | Plant response rating, Kochia (kochia [8]; [26]) | Plant response rating, Pigweed, Palmer (pigweed, palmer [11]; [23]) | Plant response rating, Soybean (soybean [15]; [24])
0: Plant response rating, Rice (rice) | Plant response rating, Ragweed (ragweed [2]; [23]) | Plant response rating, Barnyardgrass (barnyardgrass) | Plant response rating, Horseweed (horseweed; [25])

CCc1ncn(-c2ccc(C)c(C(=O)N3C[C@H](C)Oc4c(C)cccc43)c2)n1 [Compound 98]
65: Plant response rating, Ducksalad (ducksalad)
90: Plant response rating, Wheat (wheat [1]; [28]) | Plant response rating, Ragweed (ragweed [2]; [24]) | Plant response rating, Oat, Wild (oat, wild [4]; [28]) | Plant response rating, Kochia (kochia [8]; [29]) | Plant response rating, Blackgrass (blackgrass [9]; [29]) | Foxtail, Giant plant response rating (foxtail, giant [12]; [27]) | Plant response rating, Foxtail, Giant (foxtail, giant [12]; [29]) | Plant response rating, Soybean (soybean [15]; [23]) | Plant response rating, Oat, Wild (oat, wild [16]; [24]) | Pigweed, Palmer plant response rating (pigweed, palmer [17]; [27]) | Plant response rating, Sedge, Umbrella (sedge, umbrella) | Plant response rating, Corn (corn [18]; [29])
80: Wheat plant response rating (wheat [1]; [27]) | Plant response rating, Blackgrass (blackgrass [3]; [24]) | Oat, Wild plant response rating (oat, wild [4]; [27]) | Kochia plant response rating (kochia [8]; [27]) | Goosegrass plant response rating (goosegrass [14]; [27]) | Plant response rating, Kochia (kochia [19]; [23])
70: Blackgrass plant response rating (blackgrass [9]; [27]) | Plant response rating, Oat, Wild (oat, wild [16]; [23]) | Ryegrass, Italian plant response rating (ryegrass, Italian [21]; [27])
60: Plant response rating, Blackgrass (blackgrass [3]; [23]) | Plant response rating, Wheat (wheat [6]; [24]) | Ragweed plant response rating (ragweed [7]; [27]) | Plant response rating, Ragweed (ragweed [7]; [28]) | Plant response rating, Horseweed (horseweed; [29])
45: Plant response rating, Barnyardgrass (barnyardgrass)
10: Plant response rating, Corn (corn [20]; [23])
100: Plant response rating, Foxtail, Giant (foxtail, giant [5]; [23]) | Plant response rating, Foxtail, Giant (foxtail, giant [5]; [24]) | Plant response rating, Goosegrass (goosegrass [10]; [23]) | Plant response rating, Goosegrass (goosegrass [10]; [24]) | Plant response rating, Pigweed, Palmer (pigweed, palmer [11]; [23]) | Plant response rating, Pigweed, Palmer (pigweed, palmer [11]; [24]) | Galium plant response rating (galium; [27]) | Plant response rating, Galium (galium; [29]) | Plant response rating, Ryegrass, Italian (ryegrass, Italian [13]; [23]) | Plant response rating, Ryegrass, Italian (ryegrass, Italian [13]; [24]) | Plant response rating, Goosegrass (goosegrass [14]; [29]) | Plant response rating, Soybean (soybean [15]; [24]) | Plant response rating, Pigweed, Palmer (pigweed, palmer [17]; [28]) | Plant response rating, Kochia (kochia [19]; [24]) | Plant response rating, Ryegrass, Italian (ryegrass, Italian [21]; [28]) | Soybean plant response rating (soybean [22]; [27]) | Plant response rating, Soybean (soybean [22]; [28])
50: Plant response rating, Wheat (wheat [6]; [23]) | Corn plant response rating (corn [18]; [27])
30: Plant response rating, Rice (rice) | Plant response rating, Ragweed (ragweed [2]; [23]) | Horseweed plant response rating (horseweed; [27]) | Plant response rating, Corn (corn [20]; [24])

— patent US20260262643A1, “HERBICIDAL BENZOXAZINES” (FMC CORPORATION, priority 2022, published 2026)
